# Experimental data from US20180244611A1, “Modulators of the Cystic Fibrosis Transmembrane Conductance Regulator Protein and Methods of Use” (AbbVie S.à.r.l., priority 2017, published 2018).
# How the values were obtained:
# [1] = target: T1, F508delCFTR (Homo sapiens, UniProt P13569, DEL508-508); experiment: Cell Surface Expression-Horse Radish Peroxidase (CSE-HRP) assay, test compound without co-corrector; assay type: cell-based; conditions: for Emax: maximum at any tested concentration, normalized to positive control, without co-corrector; for EC50: test compound without co-corrector;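 as to Emax: percent of on-plate 2 µM positive control corrector response over DMSO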
# T1 construct: expressed in transfected cells; host or cells: CFBE41o- human lung-derived epithelial cells (CFBE41o-F508delCFTR-HRP), doxycycline-inducible
# T1 sequence (P13569 with tags, fused parts or gaps DEL508-508): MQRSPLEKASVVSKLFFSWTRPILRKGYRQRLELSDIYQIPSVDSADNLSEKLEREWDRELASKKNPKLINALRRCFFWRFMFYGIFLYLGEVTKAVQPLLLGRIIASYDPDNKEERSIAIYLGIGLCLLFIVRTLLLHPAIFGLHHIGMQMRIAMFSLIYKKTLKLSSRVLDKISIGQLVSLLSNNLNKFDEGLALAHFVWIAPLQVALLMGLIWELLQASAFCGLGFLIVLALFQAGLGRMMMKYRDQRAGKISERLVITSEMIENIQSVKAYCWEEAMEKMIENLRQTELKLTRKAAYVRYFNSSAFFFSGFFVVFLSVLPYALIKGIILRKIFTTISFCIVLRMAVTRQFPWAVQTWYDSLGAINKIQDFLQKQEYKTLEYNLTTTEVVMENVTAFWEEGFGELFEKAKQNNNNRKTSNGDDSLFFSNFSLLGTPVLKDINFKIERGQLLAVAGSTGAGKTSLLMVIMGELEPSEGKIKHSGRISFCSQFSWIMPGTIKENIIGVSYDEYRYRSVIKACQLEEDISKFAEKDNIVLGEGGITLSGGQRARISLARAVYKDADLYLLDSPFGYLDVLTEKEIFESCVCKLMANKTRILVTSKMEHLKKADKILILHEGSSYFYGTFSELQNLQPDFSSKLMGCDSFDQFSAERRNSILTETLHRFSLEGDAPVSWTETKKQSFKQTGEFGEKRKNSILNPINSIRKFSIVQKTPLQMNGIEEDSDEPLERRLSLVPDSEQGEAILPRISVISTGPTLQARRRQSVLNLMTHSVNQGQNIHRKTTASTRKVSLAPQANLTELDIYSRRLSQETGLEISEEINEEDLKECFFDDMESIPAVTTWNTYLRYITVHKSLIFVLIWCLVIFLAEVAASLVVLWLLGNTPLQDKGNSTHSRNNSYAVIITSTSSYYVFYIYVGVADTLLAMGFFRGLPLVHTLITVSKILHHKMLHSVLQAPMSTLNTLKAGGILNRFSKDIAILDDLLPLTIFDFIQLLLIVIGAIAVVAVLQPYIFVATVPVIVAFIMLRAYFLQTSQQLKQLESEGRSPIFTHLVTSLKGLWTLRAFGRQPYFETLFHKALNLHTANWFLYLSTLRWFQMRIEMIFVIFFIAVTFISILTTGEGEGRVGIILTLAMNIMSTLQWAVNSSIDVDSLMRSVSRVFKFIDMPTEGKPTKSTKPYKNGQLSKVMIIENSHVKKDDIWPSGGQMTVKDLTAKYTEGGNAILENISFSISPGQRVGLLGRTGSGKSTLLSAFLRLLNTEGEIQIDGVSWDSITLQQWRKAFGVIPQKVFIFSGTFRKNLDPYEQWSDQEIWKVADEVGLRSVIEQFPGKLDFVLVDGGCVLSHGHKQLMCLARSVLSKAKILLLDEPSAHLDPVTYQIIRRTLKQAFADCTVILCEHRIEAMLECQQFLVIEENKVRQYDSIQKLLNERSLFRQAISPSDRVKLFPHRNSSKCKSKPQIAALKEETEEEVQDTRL
# Method in brief: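 Compound without co-corrector was tested at eight 3-fold concentrations, top 20 μM, for 18-24 h at 33° C on doxycycline-induced (0.5 μg/mL, 72 h) CFBE41o- F508delCFTR-HRP cells. After DPBS washes, luminol luminescence gave % activity relative to on-plate positive control minus DMSO; EC50 came from triplicate-plate sigmoidal fitting.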
# [2] = target: T1, F508delCFTR; experiment: Cell Surface Expression-Horse Radish Peroxidase (CSE-HRP) assay, test compound with co-corrector; assay type: cell-based; conditions: with 2 μM co-corrector; for Maximum % activity (with co-corrector): maximum at any tested concentration, normalized to positive control;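 as to Maximum % activity (with co-corrector): percent of 2 µM positive control corrector over DMSO; co-corrector is that same compound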
# Method in brief: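 Surface-expression read-out: luminol luminescence from an HRP tag in the fourth exofacial loop of F508delCFTR, in doxycycline-induced (0.5 μg/mL, 72 h) CFBE41o- cells. Compound plus 2 μM co-corrector added for 18-24 h at 33° C., 8-point 3-fold series up to 20 μM. EC50 from a sigmoidal fit with variable Hill slope, normalised to positive control, triplicate plates.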
Compound,Emax [1] [%],EC50 [1] [µM],Maximum % activity (with co-corrector) [2],EC50 [2] [µM]
"COc1ccc(Br)c2c1C(C(=O)NS(=O)(=O)c1cccc3nccn13)CC2 (stereo not shown) [Example I-78, 4-bromo-N-(imidazo[1,2-a]pyridine-5-sulfonyl)-7-methoxy-2,3-dihydro-1H-indene-1-carboxamide]",≥ 150,3 to 10,+++ (≥350),< 3
"COc1ccc(Br)c2c1C(C(=O)NS(=O)(=O)c1cccc3ccccc13)C2 (stereo not shown) [Example I-79, 2-bromo-5-methoxy-N-(naphthalene-1-sulfonyl)bicyclo[4.2.0]octa-1,3,5-triene-7-carboxamide]",≥ 150,3 to 10,+++ (≥350),< 3
"COc1ccc(C2CCC2)c2c1[C@@H](C(=O)NS(=O)(=O)c1cccc3ccccc13)CC2 [Example I-80, (1S)-4-cyclobutyl-7-methoxy-N-(naphthalene-1-sulfonyl)-2,3-dihydro-1H-indene-1-carboxamide]",50 to 150,3 to 10,+++ (≥350),3 to 10
"COc1ccc(C2CCC2)c2c1[C@H](C(=O)NS(=O)(=O)c1cccc3ccccc13)CC2 [Example I-81, (1R)-4-cyclobutyl-7-methoxy-N-(naphthalene-1-sulfonyl)-2,3-dihydro-1H-indene-1-carboxamide]",≥ 150,< 3,+++ (≥350),< 3
"O=C(NS(=O)(=O)c1cccc2ccccc12)C1CCCc2cccc(C3CCC3)c21 (stereo not shown) [Example I-82, 8-cyclobutyl-N-(naphthalene-1-sulfonyl)-1,2,3,4-tetrahydronaphthalene-1-carboxamide]",≥ 150,< 3,+++ (≥350),< 3
"CC1(C(=O)NS(=O)(=O)c2cccc3ccccc23)CCc2cccc(C3CCC3)c21 (stereo not shown) [Example I-83, 7-cyclobutyl-1-methyl-N-(naphthalene-1-sulfonyl)-2,3-dihydro-1H-indene-1-carboxamide]",≥ 150,< 3,+++ (≥350),< 3
"COc1ccc(Br)c2c1CC[C@H]2C(=O)NS(=O)(=O)c1cccc2ccccc12 [Example I-84, (1R)-7-bromo-4-methoxy-N-(naphthalene-1-sulfonyl)-2,3-dihydro-1H-indene-1-carboxamide]",≥ 150,3 to 10,+++ (≥350),< 3
"COc1ccc(Br)c2c1CC[C@@H]2C(=O)NS(=O)(=O)c1cccc2ccccc12 [Example I-85, (1S)-7-bromo-4-methoxy-N-(naphthalene-1-sulfonyl)-2,3-dihydro-1H-indene-1-carboxamide]",50 to 150,3 to 10,+++ (≥350),3 to 10
"COc1ccc(C2CC2)c2c1C(C(=O)NS(=O)(=O)c1cccc3ccccc13)CCC2 (stereo not shown) [Example I-88, 5-cyclopropyl-8-methoxy-N-(naphthalene-1-sulfonyl)-1,2,3,4-tetrahydronaphthalene-1-carboxamide]",≥ 150,< 3,+++ (≥350),< 3
"COc1ccc(OC)c2c1CC[C@@H]2C(=O)NS(=O)(=O)c1cccc2ccccc12 [Example I-89, (1S)-4,7-dimethoxy-N-(naphthalene-1-sulfonyl)-2,3-dihydro-1H-indene-1-carboxamide]",50 to 150,3 to 10,++ (≥150 and <350),3 to 10
"COc1ccc(OC)c2c1CC[C@H]2C(=O)NS(=O)(=O)c1cccc2ccccc12 [Example I-90, (1R)-4,7-dimethoxy-N-(naphthalene-1-sulfonyl)-2,3-dihydro-1H-indene-1-carboxamide]",≥ 150,3 to 10,+++ (≥350),3 to 10
"COc1ccc(OC)c2c1CC[C@@H]2C(=O)NS(=O)(=O)c1cccc2ncccc12 [Example I-91, (1S)-4,7-dimethoxy-N-(quinoline-5-sulfonyl)-2,3-dihydro-1H-indene-1-carboxamide]",50 to 150,3 to 10,+++ (≥350),3 to 10

# Further lines, results first:
Emax [1] [%],EC50 [1] [µM],Maximum % activity (with co-corrector) [2],EC50 [2] [µM],Compound
≥ 150,3 to 10,+++ (≥350),< 3,"COc1ccc(OC)c2c1CC[C@H]2C(=O)NS(=O)(=O)c1cccc2ncccc12 [Example I-92, (1R)-4,7-dimethoxy-N-(quinoline-5-sulfonyl)-2,3-dihydro-1H-indene-1-carboxamide]"
≥ 150,3 to 10,+++ (≥350),3 to 10,"COc1ccc(C(F)(F)F)c2c1[C@@H](C(=O)NS(=O)(=O)c1cccc3ccccc13)CC2 [Example I-93, (1S)-7-methoxy-N-(naphthalene-1-sulfonyl)-4-(trifluoromethyl)-2,3-dihydro-1H-indene-1-carboxamide]"
≥ 150,< 3,+++ (≥350),< 3,"COc1ccc(C(F)(F)F)c2c1[C@H](C(=O)NS(=O)(=O)c1cccc3ccccc13)CC2 [Example I-94, (1R)-7-methoxy-N-(naphthalene-1-sulfonyl)-4-(trifluoromethyl)-2,3-dihydro-1H-indene-1-carboxamide]"
≥ 150,3 to 10,+++ (≥350),< 3,"COc1ccc(C(F)(F)F)c2c1[C@@H](C(=O)NS(=O)(=O)c1cccc3ncccc13)CC2 [Example I-95, (1S)-7-methoxy-N-(quinoline-5-sulfonyl)-4-(trifluoromethyl)-2,3-dihydro-1H-indene-1-carboxamide]"
≥ 150,< 3,+++ (≥350),< 3,"COc1ccc(C(F)(F)F)c2c1[C@H](C(=O)NS(=O)(=O)c1cccc3ncccc13)CC2 [Example I-96, (1R)-7-methoxy-N-(quinoline-5-sulfonyl)-4-(trifluoromethyl)-2,3-dihydro-1H-indene-1-carboxamide]"
≥ 150,< 3,+++ (≥350),< 3,"CCC1(C(=O)NS(=O)(=O)c2cccc3cnn(C)c23)CCc2c(Cl)cccc21 (stereo not shown) [Example I-97, 4-chloro-1-ethyl-N-(1-methyl-1H-indazole-7-sulfonyl)-2,3-dihydro-1H-indene-1-carboxamide]"
≥ 150,< 3,+++ (≥350),< 3,"COc1ccc(Br)c2c1C(C(=O)NS(=O)(=O)c1cccc3cnn(C)c13)CC2 (stereo not shown) [Example I-98, 4-bromo-7-methoxy-N-(1-methyl-1H-indazole-7-sulfonyl)-2,3-dihydro-1H-indene-1-carboxamide]"
≥ 150,3 to 10,+++ (≥350),< 3,"COc1ccc(C2CCC2)c2c1C(C(=O)NS(=O)(=O)c1cccc3cnn(C)c13)CC2 (stereo not shown) [Example I-99, 4-cyclobutyl-7-methoxy-N-(1-methyl-1H-indazole-7-sulfonyl)-2,3-dihydro-1H-indene-1-carboxamide]"
≥ 150,< 3,+++ (≥350),< 3,"COc1ccc(Br)c2c1C(C(=O)NS(=O)(=O)c1cccc3ncc(C)n13)CC2 (stereo not shown) [Example I-100, 4-bromo-7-methoxy-N-(3-methylimidazo[1,2-a]pyridine-5-sulfonyl)-2,3-dihydro-1H-indene-1-carboxamide]"
≥ 150,< 3,+++ (≥350),< 3,"COc1ccc(Br)c2c1C(C(=O)NS(=O)(=O)c1cccc3nc(C)cn13)CC2 (stereo not shown) [Example I-101, 4-bromo-7-methoxy-N-(2-methylimidazo[1,2-a]pyridine-5-sulfonyl)-2,3-dihydro-1H-indene-1-carboxamide]"
≥ 150,< 3,+++ (≥350),< 3,"COc1ccc(C2CCC2)c2c1C(C(=O)NS(=O)(=O)c1cccc3ccccc13)C2 (stereo not shown) [Example I-102, 2-cyclobutyl-5-methoxy-N-(naphthalene-1-sulfonyl)bicyclo[4.2.0]octa-1,3,5-triene-7-carboxamide]"
≥ 150,3 to 10,+++ (≥350),3 to 10,"COc1ccc(C2CCC2)c2c1[C@H](C(=O)NS(=O)(=O)c1cccc3ncccc13)CC2 [Example I-103, (1R)-4-cyclobutyl-7-methoxy-N-(quinoline-5-sulfonyl)-2,3-dihydro-1H-indene-1-carboxamide]"
≥ 150,3 to 10,+++ (≥350),< 3,"COc1ccc(C2CCC2)c2c1[C@@H](C(=O)NS(=O)(=O)c1cccc3ncccc13)CC2 [Example I-104, (1S)-4-cyclobutyl-7-methoxy-N-(quinoline-5-sulfonyl)-2,3-dihydro-1H-indene-1-carboxamide]"
